Assay results from article PMC10906241, “Molecular Insights into O-Linked Sialoglycans Recognition by the Siglec-Like SLBR-N (SLBRUB10712) of Streptococcus gordonii” (ACS Central Science, 2024).

Target: SLBR-N (SLBRUB10712) (Streptococcus mitis, UniProt A0A6I8WFK9)
Assay: ITC
Settings: single-site binding model

SLBR-N (SLBRUB10712), sequence (A0A6I8WFK9 entry or part of it): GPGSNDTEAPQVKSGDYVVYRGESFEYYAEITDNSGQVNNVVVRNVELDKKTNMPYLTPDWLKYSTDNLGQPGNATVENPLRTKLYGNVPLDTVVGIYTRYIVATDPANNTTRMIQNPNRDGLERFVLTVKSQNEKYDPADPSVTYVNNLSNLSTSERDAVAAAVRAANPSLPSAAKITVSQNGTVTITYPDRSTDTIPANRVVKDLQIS

CC(=O)N[C@H]1[C@H](OC[C@H]2O[C@H](O[C@H](C)[C@H](N)C(=O)O)[C@H](NC(C)=O)[C@@H](O[C@@H]3O[C@H](CO)[C@H](O)[C@H](O[C@]4(C(=O)O)C[C@H](O)[C@@H](NC(C)=O)[C@H]([C@H](O)[C@H](O)CO)O4)[C@H]3O)[C@H]2O)O[C@H](CO)[C@@H](O[C@@H]2O[C@H](CO)[C@H](O)[C@H](O[C@]3(C(=O)O)C[C@H](O)[C@@H](NC(C)=O)[C@H]([C@H](O)[C@H](O)CO)O3)[C@H]2O)[C@@H]1O [compound 5, ligand 5]
Kd: 15.1 ± 1.13 µM
